The target of assay [1] is T1, CFTR (Homo sapiens, UniProt P13569). In words: Membrane Potential Dye, Enteroid Assay B. Type of assay: cell-based. To be noted: for EC50: read-out: Ent. B EC50. In a few lines: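 Activity given as % of a triple-combination reference (1 μM and 3 μM correctors, 300 nM acute potentiator). Enteroids were preincubated 18-24 h with compound; chloride efflux then measured 15 min by methyl oxonol fluorescence after forskolin/IBMX/Compound III stimulation in chloride-free buffer containing CaCCinh-A01 and Chicago Sky Blue.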
T1 sequence (P13569 with tags, fused parts or gaps DEL508-508): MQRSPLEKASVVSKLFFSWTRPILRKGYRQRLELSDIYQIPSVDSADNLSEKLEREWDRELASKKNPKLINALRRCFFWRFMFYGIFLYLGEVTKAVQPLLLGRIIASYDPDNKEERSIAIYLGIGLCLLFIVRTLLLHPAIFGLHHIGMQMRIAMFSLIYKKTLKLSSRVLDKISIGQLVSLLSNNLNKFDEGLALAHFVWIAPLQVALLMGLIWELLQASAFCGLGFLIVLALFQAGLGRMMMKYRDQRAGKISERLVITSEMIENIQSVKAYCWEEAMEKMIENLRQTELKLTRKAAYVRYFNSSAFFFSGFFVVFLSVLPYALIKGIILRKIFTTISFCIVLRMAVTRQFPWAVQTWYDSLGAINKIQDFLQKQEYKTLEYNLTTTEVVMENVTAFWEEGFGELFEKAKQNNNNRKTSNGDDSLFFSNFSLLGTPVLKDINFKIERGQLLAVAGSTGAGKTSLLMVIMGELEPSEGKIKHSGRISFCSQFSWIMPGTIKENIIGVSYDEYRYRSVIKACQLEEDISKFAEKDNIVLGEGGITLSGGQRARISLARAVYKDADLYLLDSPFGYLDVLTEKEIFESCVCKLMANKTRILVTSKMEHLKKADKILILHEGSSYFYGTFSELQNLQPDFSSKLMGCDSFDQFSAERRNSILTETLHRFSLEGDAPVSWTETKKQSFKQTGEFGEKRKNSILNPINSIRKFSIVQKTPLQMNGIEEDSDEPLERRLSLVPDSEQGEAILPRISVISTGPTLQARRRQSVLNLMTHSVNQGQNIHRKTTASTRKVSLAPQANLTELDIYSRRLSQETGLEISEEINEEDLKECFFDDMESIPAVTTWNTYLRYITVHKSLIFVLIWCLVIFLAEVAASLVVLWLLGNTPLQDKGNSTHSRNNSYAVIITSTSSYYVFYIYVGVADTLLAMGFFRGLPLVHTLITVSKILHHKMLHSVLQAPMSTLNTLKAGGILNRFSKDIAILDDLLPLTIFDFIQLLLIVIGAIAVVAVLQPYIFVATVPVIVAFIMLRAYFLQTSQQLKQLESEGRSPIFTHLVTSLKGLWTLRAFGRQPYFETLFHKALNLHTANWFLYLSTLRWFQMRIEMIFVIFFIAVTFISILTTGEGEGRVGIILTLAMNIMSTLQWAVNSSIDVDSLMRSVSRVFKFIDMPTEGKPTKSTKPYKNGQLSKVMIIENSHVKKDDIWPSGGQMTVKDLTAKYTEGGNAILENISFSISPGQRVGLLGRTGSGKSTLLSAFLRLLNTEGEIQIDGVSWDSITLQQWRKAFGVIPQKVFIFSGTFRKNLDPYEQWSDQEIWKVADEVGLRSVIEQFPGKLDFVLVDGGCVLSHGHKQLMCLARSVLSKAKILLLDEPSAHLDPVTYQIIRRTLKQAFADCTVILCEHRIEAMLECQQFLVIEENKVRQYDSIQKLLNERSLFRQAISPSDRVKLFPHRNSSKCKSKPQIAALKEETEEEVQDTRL

In assay [2] the target is T1, CFTR. The assay is described as follows: Membrane Potential Dye, Enteroid Assay A. Type of assay: cell-based. To be noted: for EC50: read-out: Ent. A EC50. In a few lines:
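Primary human intestinal enteroid cells exposed to compound for 18–24 hours at 37 °C, then loaded 25 min with methyl oxonol membrane potential dye plus CaCC inhibitors. Chloride transport triggered in chloride-free buffer with 10 μM forskolin, 100 μM IBMX and 300 nM Compound III, fluorescence read 15 min; % Activity relative to a triple-combination corrector/potentiator control.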

In the case of `Cc1cccc(C)c1-c1cc2nc(n1)NS(=O)(=O)c1cccc(c1)C(=O)N(C1CC3(CCN(CCF)CC3)C1)[C@H](CC(C)C)CO2` [Compound 321], in assay [1], the “Ent. B Max Activity (%)” value was “+++ (+++ is >60%)” and the EC50 is less than 1000 nM. Moreover, in assay [2], the “Ent. A Max Activity (%)” value is recorded as “+++ (+++ is >60%)” and the half-maximal effective concentration (EC50) is less than 1000 nM.
For the compound `COC(=O)N1CCCCC12CC(N1C(=O)c3cccc(c3)S(=O)(=O)Nc3nc(cc(-c4c(C)cccc4C)n3)OC[C@H]1CC(C)C)C2` (stereo partly drawn) [Compound 323], in assay [1], the “Ent. B Max Activity (%)” value was “+++ (+++ is >60%)” and the EC50 was less than 1000 nM. Besides, in assay [2], the “Ent. A Max Activity (%)” value is recorded as “+++ (+++ is >60%)” and the EC50 was less than 1000 nM.
For the compound `Cc1cccc(C)c1-c1cc2nc(n1)NS(=O)(=O)c1cccc(c1)C(=O)N(C1CC3(CCN(CCC(F)(F)F)CC3)C1)[C@H](CC(C)C)CO2` [Compound 20, (11R)-6-(2,6-Dimethylphenyl)-11-isobutyl-2,2-dioxo-12-[7-(3,3,3-trifluoropropyl)-7-azaspiro[3.5]nonan-2-yl]-9-oxa-2λ^6-thia-3,5,12,19-tetrazatricyclo[12.3.1.14,8]nonadeca-1(18),4(19),5,7,14,16-hexaen-13-one], in assay [1], the “Ent. B Max Activity (%)” value is on record as “+++ (+++ is >60%)” and the EC50 was less than 1000 nM. Also, in assay [2], the “Ent. A Max Activity (%)” value is reported as “+++ (+++ is >60%)” and the EC50 is less than 1000 nM.
As for `COC(=O)NC1CC2(C1)CC(N1C(=O)c3cccc(c3)S(=O)(=O)Nc3nc(cc(-c4c(C)cccc4C)n3)OC[C@H]1CC(C)C)C2` (stereo partly drawn) [Compound 326], in assay [1], the “Ent. B Max Activity (%)” value is on record as “+++ (+++ is >60%)” and the EC50 was less than 1000 nM. Also, in assay [2], the “Ent. A Max Activity (%)” value is given as “+++ (+++ is >60%)” and the EC50 is less than 1000 nM.
Turning to `Cc1cccc(C)c1-c1cc2nc(n1)NS(=O)(=O)c1cccc(c1)C(=O)N(C1CC3(CC3)C1)[C@@H](CC(C)C)CO2` [Compound 474, (11S)-6-(2,6-Dimethylphenyl)-11-isobutyl-2,2-dioxo-12-spiro[2.3]hexan-5-yl-9-oxa-2λ^6-thia-3,5,12,19-tetrazatricyclo[12.3.1.14,8]nonadeca-1(18),4(19),5,7,14,16-hexaen-13-one], in assay [1], the “Ent. B Max Activity (%)” value is “+ (+ is <300%)” and the EC50 was less than 1000 nM. Also, in assay [2], the “Ent. A Max Activity (%)” value was “++ (++ is 30-60%)” and the EC50 is less than 1000 nM.
For `Cc1cccc(C)c1-c1cc2nc(n1)NS(=O)(=O)c1cccc(c1)C(=O)N(C1CC3(CCN(C)CC3)C1)CC(CC(C)C)(CC(C)C)CO2` (stereo not drawn) [Compound 311], in assay [1], the “Ent. B Max Activity (%)” value is “+++ (+++ is >60%)” and the concentration for a half-maximal effect (EC50) is less than 1000 nM. Further, in assay [2], the “Ent. A Max Activity (%)” value is recorded as “+++ (+++ is >60%)” and the EC50 was less than 1000 nM.
As for `Cc1cccc(C)c1-c1cc2nc(n1)NS(=O)(=O)c1cccc(c1)C(=O)N(C1CN(C(C)C)C1)[C@H](CC(C)C)CO2` [Compound 319], in assay [1], the “Ent. B Max Activity (%)” value is reported as “+++ (+++ is >60%)” and the EC50 is less than 1000 nM. Further, in assay [2], the “Ent. A Max Activity (%)” value is given as “+++ (+++ is >60%)” and the concentration for a half-maximal effect (EC50) was less than 1000 nM.
In the case of `Cc1cccc(C)c1-c1cc2nc(n1)NS(=O)(=O)c1cccc(c1)C(=O)N(C1CC3(CCN(C(=O)OC(C)C)CC3)C1)[C@H](CC(C)C)CO2` [Compound 21, Isopropyl 2-[(11R)-6-(2,6-dimethylphenyl)-11-isobutyl-2,2,13-trioxo-9-oxa-2λ^6-thia-3,5,12,19-tetrazatricyclo[12.3.1.14,8]nonadeca-1(18),4(19),5,7,14,16-hexaen-12-yl]-7-azaspiro[3.5]nonane-7-carboxylate], in assay [1], the “Ent. B Max Activity (%)” value was “+++ (+++ is >60%)” and the EC50 was less than 1000 nM. Moreover, in assay [2], the “Ent. A Max Activity (%)” value was “+++ (+++ is >60%)” and the EC50 was less than 1000 nM.
Take `CC(=O)N1CCC2(CC1)CC(N1C(=O)c3cccc(c3)S(=O)(=O)Nc3nc(cc(-c4c(C)cccc4C)n3)OC[C@H]1CC(C)C)C2` [Compound 16, (11R)-12-(7-Acetyl-7-azaspiro[3.5]nonan-2-yl)-6-(2,6-dimethylphenyl)-11-isobutyl-2,2-dioxo-9-oxa-2λ^6-thia-3,5,12,19-tetrazatricyclo[12.3.1.14,8]nonadeca-1(18),4(19),5,7,14,16-hexaen-13-one]: in assay [1], the “Ent. B Max Activity (%)” value is reported as “+++ (+++ is >60%)” and the EC50 was less than 1000 nM. In addition, in assay [2], the “Ent. A Max Activity (%)” value is “+++ (+++ is >60%)” and the EC50 is less than 1000 nM.
With `Cc1cccc(C)c1-c1cc2nc(n1)NS(=O)(=O)c1cccc(c1)C(=O)N([C@H]1CC3(C[C@@H](CO)C3)C1)[C@H](CC(C)C)CO2` (stereo partly drawn) [Compound 337], in assay [1], the “Ent. B Max Activity (%)” value is reported as “+++ (+++ is >60%)” and the EC50 is less than 1000 nM. For the same compound, in assay [2], the “Ent. A Max Activity (%)” value is recorded as “+++ (+++ is >60%)” and the EC50 was less than 1000 nM.
Consider `Cc1cccc(C)c1-c1cc2nc(n1)NS(=O)(=O)c1cccc(c1)C(=O)N(C1CN(C3CC4(CC4)C3)C1)[C@H](CC(C)C)CO2` [Compound 101, (11R)-6-(2,6-Dimethylphenyl)-11-isobutyl-2,2-dioxo-12-(1-spiro[2.3]hexan-5-ylazetidin-3-yl)-9-oxa-2λ^6-thia-3,5,12,19-tetrazatricyclo[12.3.1.14,8]nonadeca-1(18),4(19),5,7,14,16-hexaen-13-one], for which, in assay [1], the “Ent. B Max Activity (%)” value was “+++ (+++ is >60%)” and the EC50 was less than 1000 nM. For the same compound, in assay [2], the “Ent. A Max Activity (%)” value is given as “+++ (+++ is >60%)” and the EC50 was less than 1000 nM.
As for `COCCN1CCC2(CC1)CC(N1C(=O)c3cccc(c3)S(=O)(=O)Nc3nc(cc(-c4c(C)cccc4C)n3)OC[C@H]1CC(C)C)C2` [Compound 22, (11R)-6-(2,6-dimethylphenyl)-11-isobutyl-12-[7-(2-methoxyethyl)-7-azaspiro[3.5]nonan-2-yl]-2,2-dioxo-9-oxa-2λ^6-thia-3,5,12,19-tetrazatricyclo[12.3.1.14,8]nonadeca-1(18),4(19),5,7,14,16-hexaen-13-one], in assay [1], the “Ent. B Max Activity (%)” value is given as “+++ (+++ is >60%)” and the EC50 was less than 1000 nM. Moreover, in assay [2], the “Ent. A Max Activity (%)” value is on record as “+++ (+++ is >60%)” and the EC50 is less than 1000 nM.
As for `Cc1cccc(C)c1-c1cc2nc(n1)NS(=O)(=O)c1cccc(c1)C(=O)N([C@H]1CC3(C[C@H](N(C)C)C3)C1)[C@H](CC(C)C)CO2` (stereo partly drawn) [Compound 313], in assay [1], the “Ent. B Max Activity (%)” value was “+++ (+++ is >60%)” and the EC50 was less than 1000 nM. Moreover, in assay [2], the “Ent. A Max Activity (%)” value is recorded as “+++ (+++ is >60%)” and the concentration for a half-maximal effect (EC50) is less than 1000 nM.
Turning to `Cc1cccc(C)c1-c1cc2nc(n1)NS(=O)(=O)c1cccc(c1)C(=O)N(C1CN(C(=O)OCc3ccccc3)C1)[C@H](CC(C)C)CO2` [Compound 100, Benzyl 3-[(11R)-6-(2,6-dimethylphenyl)-11-isobutyl-2,2,13-trioxo-9-oxa-2λ^6-thia-3,5,12,19-tetrazatricyclo[12.3.1.14,8]nonadeca-1(18),4(19),5,7,14,16-hexaen-12-yl]azetidine-1-carboxylate], in assay [1], the “Ent. B Max Activity (%)” value is “+++ (+++ is >60%)” and the EC50 is less than 1000 nM. Further, in assay [2], the “Ent. A Max Activity (%)” value was “+++ (+++ is >60%)” and the EC50 was less than 1000 nM.
Turning to `CNC(=O)[C@H]1CC2(C1)C[C@H](N1C(=O)c3cccc(c3)S(=O)(=O)Nc3nc(cc(-c4c(C)cccc4C)n3)OC[C@H]1CC(C)C)C2` (stereo in doubt) [Compound 346], in assay [1], the “Ent. B Max Activity (%)” value is “+++ (+++ is >60%)” and the EC50 is less than 1000 nM. Besides, in assay [2], the “Ent. A Max Activity (%)” value is “+++ (+++ is >60%)” and the concentration for a half-maximal effect (EC50) was less than 1000 nM.

(Values after patent publication US20230382925A1, “MODULATORS OF CYSTIC FIBROSIS TRANSMEMBRANE CONDUCTANCE REGULATOR” (VERTEX PHARMACEUTICALS INCORPORATED, priority 2020, published 2023).)
